Experimental data taken from patent US20240247080A1, “GLP1/GIP/NPY2 RECEPTOR TRIPLE AGONISTS” (Boehringer Ingelheim International GmbH, priority 2022, published 2024).
Where two headings read alike, the source gives them in different places. Starred links: 1 amine or outer side, 2 acyl side, 3 side chain; linkers in the order of their positions; H or OH if unused. Positions of bridges follow the written chain, without caps; N, C: chain ends. Non-standard residues stand in square brackets, D forms with d. Groups on a side chain read outwards from the residue. Chains are numbered I, II in the order given. *: point of attachment. C20 diacid = O=C(O)CCCCCCCCCCCCCCCCCCC(=O)*; C18 diacid = O=C(O)CCCCCCCCCCCCCCCCC(=O)*; γGlu = O=C(O)[C@H](CCC(=O)[*:2])N[*:1]; εLys = N[C@@H](CCCCN[*:1])C(=O)[*:2]; Tle = CC(C)(C)[C@H](N)C(=O)O; AEEA = NCCOCCOCC(=O)O; Aib = CC(C)(N)C(=O)O

Experiments:
hGLP1R = target: T1, hGLP1R (Homo sapiens, UniProt P43220); assay: hGLP1R CreLuc reporter gene assay in 0.5% and 100% plasma; type: cell-based; settings: CreLuc reporter gene assay
T1 construct: expressed in transfected cells; host or cells: HEK-293 cells carrying a CRE-luciferase reporter gene
T1 sequence (P43220 24-463): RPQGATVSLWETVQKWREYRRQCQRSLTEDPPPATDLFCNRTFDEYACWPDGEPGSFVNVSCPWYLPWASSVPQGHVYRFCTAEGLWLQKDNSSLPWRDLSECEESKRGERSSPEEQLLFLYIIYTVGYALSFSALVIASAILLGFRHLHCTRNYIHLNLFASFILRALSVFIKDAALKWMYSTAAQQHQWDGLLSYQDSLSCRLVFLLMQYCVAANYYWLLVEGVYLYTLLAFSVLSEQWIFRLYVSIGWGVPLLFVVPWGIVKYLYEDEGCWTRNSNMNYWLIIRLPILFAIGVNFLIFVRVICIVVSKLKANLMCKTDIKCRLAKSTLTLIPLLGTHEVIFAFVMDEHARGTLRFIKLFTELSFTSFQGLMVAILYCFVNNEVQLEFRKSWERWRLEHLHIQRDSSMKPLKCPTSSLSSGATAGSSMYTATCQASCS
Excerpt: (§1) Example 1: hGLPR/hGIPR/hNPY2R CreLuc Assay in 0.5% and 100% Plasma
(§2) CHO and HEK-293 recombinant cell lines express a luciferase reporter gene under control of the cAMP responsive element (CRE). As a second recombinant protein the GLP-1 and NPY2 receptors were expressed in the reporter gene HEK cells, and the GIP receptor was expressed in the reporter gene CHO cells, respectively. Stimulation of these recombinant cells with an agonist leads to an increase of intracellular cAMP levels. In the presence of cAMP, the transcription factor CRE binding protein (CREB) binds to the CRE and to the CREB binding protein (CBP), which leads to transcription of the luciferase reporter gene. Peptides upon serial-dilution in 100% DMSO were transferred into 384-well assay plates with 5 μl pre-dispensed assay buffer (1×HBSS, 20 mM HEPES, pH7.4 supplemented with 0.5% human plasma) using acoustic dispensing on a Labcyte ECHO. Cryo-preserved transgenic reporter gene cells were thawed in assay buffer. 20 μl (10.000 cells/well) were added to the plate with the peptides and incubated for 4 hours at 37° C. in a humidified incubator. Following incubation, assay plates are equilibrated to room temperature, followed by addition of 25 μl of Bright-GIo™ Luciferase reagent, incubation at room temperature for 10 minutes and analysis of luminescence (Envision Reader). Concentration response evaluation of compounds was performed with 8 concentrations of peptides (covering four decades). EC50 values were calculated by non-linear regression using sigmoid concentration-response with variable slope. The same assays were run in the presence of 100% plasma with no additional buffer constituents.

hGIPR = target: T2, hGIPR (Homo sapiens, UniProt P48546); assay: hGIPR CreLuc reporter gene assay in 0.5% and 100% plasma; type: cell-based; settings: CreLuc reporter gene assay
T2 construct: expressed in transfected cells; host or cells: CHO cells carrying a CRE-luciferase reporter gene
T2 sequence (P48546 22-466): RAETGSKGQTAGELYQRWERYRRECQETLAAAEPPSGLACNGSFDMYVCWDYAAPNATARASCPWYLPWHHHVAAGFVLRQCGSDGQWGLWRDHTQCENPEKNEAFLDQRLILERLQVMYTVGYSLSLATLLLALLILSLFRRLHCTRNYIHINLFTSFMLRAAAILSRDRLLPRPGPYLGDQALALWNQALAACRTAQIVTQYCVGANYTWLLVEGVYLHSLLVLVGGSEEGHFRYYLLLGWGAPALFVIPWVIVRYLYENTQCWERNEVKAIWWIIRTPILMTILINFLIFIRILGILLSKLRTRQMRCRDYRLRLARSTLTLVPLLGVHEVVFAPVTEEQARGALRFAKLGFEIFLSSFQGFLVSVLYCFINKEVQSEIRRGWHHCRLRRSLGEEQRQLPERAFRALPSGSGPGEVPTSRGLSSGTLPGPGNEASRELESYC
Excerpt: as §1, §2

[1] = 0.5% human plasma, read-out: hGLP1R 0.5% hP
[2] = 0.5% human plasma, read-out: hGIPR 0.5% hP
[3] = 100% human plasma, read-out: hGIPR 100% hP
[4] = 100% human plasma, read-out: hGLP1R 100% hP

Row | EC50 (hGLP1R; [1]) | EC50 (hGIPR; [2]) | EC50 (hGIPR; [3]) | EC50 (hGLP1R; [4]) | Substance | EC50 (hGLP1R; hGLP1R 0.5% hP, 0.5% human plasma) | EC50 (hGLP1R; hGLP1R 100% hP, 100% human plasma) | EC50 (hGIPR; hGIPR 0.5% hP, 0.5% human plasma) | EC50 (hGIPR; hGIPR 100% hP, 100% human plasma)
1 | 0.12 nM | 0.28 nM | 1.5 nM | – | H-Y[Aib]EGTFTSDYSI[Aib]LEKQAQ[Aib]AFVEWLIK([εLys-γGlu-γGlu-γGlu-γGlu-γGlu-γGlu-C20 diacid])GGPSSGASLRHYYNW[Tle]TRQRY-NH2 [Compound 137, Y-Aib-E-G-T-F-T-S-D-Y-S-I-Aib-L-E-K-Q-A-Q-Aib-A-F-V-E-W-L-I-K(1,3)-G-G-P-S-S-G-A-S-L-R-H-Y-Y-N-W-Tle-T-R-Q-R-Y-NH2.C20DA-gGlu-gGlu-gGlu-gGlu-gGlu-gGlu-eLys(1,2)] | – | – | – | –
2 | – | – | – | – | H-Y[Aib]EGTFTSDLSI[Aib]LEKQAQ[Aib]AFVEWLIK([εLys-γGlu-γGlu-γGlu-γGlu-γGlu-γGlu-C20 diacid])GGPSSGASLRHYYNWLTRQRY-NH2 [Compound 172, Y-Aib-E-G-T-F-T-S-D-L-S-I-Aib-L-E-K-Q-A-Q-Aib-A-F-V-E-W-L-I-K(1,3)-GGPSSGASLRHYYNWLTRQRY-NH2.C20DA-gGlu-gGlu-gGlu-gGlu-gGlu-gGlu-eLys(1,2)] | 0.07 nM | 2 nM | 0.21 nM | 1.83 nM
3 | 0.22 nM | 0.38 nM | – | – | I: H-Y[Aib]EGTFTSDYSI[Aib]LEKQAQ[Aib]EFVQWLIKGGPSEGASLRHYYNWLTRQRY-NH2 / II: {C18 diacid}-EEEEEE (amide I:28-II:C) [Compound 179, Y-Aib-E-G-T-F-T-S-D-Y-S-I-Aib-L-E-K-Q-A-Q-Aib-E-F-V-Q-W-L-I-K(1,3)-GGPSEGASLRHYYNWLTRQRY-NH2.C18DA-E-E-E-E-E-E(1,2)] | – | – | – | –
4 | 0.09 nM | 0.22 nM | 1.04 nM | – | H-Y[Aib]EGTFTSDYSI[Aib]LEKQAQ[Aib]AFVEWLIK([εLys-γGlu-γGlu-γGlu-γGlu-γGlu-γGlu-C20 diacid])GGPSSGISLRHYYNWLTRQRY-NH2 [Compound 94, Y-Aib-E-G-T-F-T-S-D-Y-S-I-Aib-L-E-K-Q-A-Q-Aib-A-F-V-E-W-L-I-K(1,3)-GGPSSGISLRHYYNWLTRQRY-NH2.C20DA-gGlu-gGlu-gGlu-gGlu-gGlu-gGlu-eLys(1,2)] | – | – | – | –
5 | 0.4 nM | 0.71 nM | – | – | H-Y[Aib]EGTFTSDYSI[Aib]LEKQAQ[Aib]AFVQWLIK([εLys-γGlu-γGlu-γGlu-γGlu-γGlu-γGlu-C20 diacid])GGPRYYASLRHYYNWLTRQRY-NH2 [Compound 14, Y-Aib-E-G-T-F-T-S-D-Y-S-I-Aib-L-E-K-Q-A-Q-Aib-A-F-V-Q-W-L-I-K(1,3)-GGPRYYASLRHYYNWLTRQRY-NH2.C20DA-gGlu-gGlu-gGlu-gGlu-gGlu-gGlu-eLys(1,2)] | – | – | – | –
6 | 0.13 nM | 0.23 nM | – | 6.74 nM | H-Y[Aib]EGTFTSDYSI[Aib]LEKQAQ[Aib]AFVQWLIK([γGlu-γGlu-γGlu-γGlu-γGlu-C20 diacid])GGPESGASLRHYYNWLTRQRY-NH2 [Compound 29, Y-Aib-E-G-T-F-T-S-D-Y-S-I-Aib-L-E-K-Q-A-Q-Aib-A-F-V-Q-W-L-I-K(1,3)-GGPESGASLRHYYNWLTRQRY-NH2.C20DA-gGlu-gGlu-gGlu-gGlu-gGlu(1,2)] | – | – | – | –
7 | 0.12 nM | 0.23 nM | 1.52 nM | – | H-Y[Aib]EGTFTSDYSI[Aib]LEKQAQ[Aib]AFVQWLIK([AEEA-AEEA-γGlu-γGlu-γGlu-γGlu-γGlu-C20 diacid])GGPSEGASLRHYYNWLTRQRY-NH2 [Compound 228, Y-Aib-E-G-T-F-T-S-D-Y-S-I-Aib-L-E-K-Q-A-Q-Aib-A-F-V-Q-W-L-I-K(1,3)-GGPSEGASLRHYYNWLTRQRY-NH2.C20DA-gGlu-gGlu-gGlu-gGlu-gGlu-OEG-OEG(1,2)] | – | – | – | –
8 | 0.11 nM | 0.2 nM | 1.5 nM | – | H-Y[Aib]EGTFTSDYSI[Aib]LEKQAQ[Aib]AFVEWLIK([εLys-γGlu-γGlu-γGlu-γGlu-γGlu-γGlu-C20 diacid])GGPRSGASLRHYYNWLTRQRY-NH2 [Compound 168, Y-Aib-E-G-T-F-T-S-D-Y-S-I-Aib-L-E-K-Q-A-Q-Aib-A-F-V-E-W-L-I-K(1,3)-GGPRSGASLRHYYNWLTRQRY-NH2.C20DA-gGlu-gGlu-gGlu-gGlu-gGlu-gGlu-eLys(1,2)] | – | – | – | –
9 | 0.11 nM | 0.16 nM | 1.81 nM | – | H-Y[Aib]EGTFTSDYSI[Aib]LEKQAQ[Aib]AFVEWLIK([AEEA-γGlu-γGlu-γGlu-C18 diacid])GGPSEGASLRHYYNWLTRQRY-NH2 [Compound 300, Y-Aib-E-G-T-F-T-S-D-Y-S-I-Aib-L-E-K-Q-A-Q-Aib-A-F-V-E-W-L-I-K(1,3)-GGPSEGASLRHYYNWLTRQRY-NH2.C18DA-gGlu-gGlu-gGlu-OEG(1,2)] | – | – | – | –
10 | 0.09 nM | 0.13 nM | 1.61 nM | 1.39 nM | H-Y[Aib]EGTFTSDYSI[Aib]LEEQAQ[Aib]AFVQWLIK([εLys-γGlu-γGlu-γGlu-γGlu-γGlu-C20 diacid])GGPSSGASLRHYYNWLTRQRY-NH2 [Compound 34, Y-Aib-E-G-T-F-T-S-D-Y-S-I-Aib-L-E-E-Q-A-Q-Aib-A-F-V-Q-W-L-I-K(1,3)-GGPSSGASLRHYYNWLTRQRY-NH2.C20DA-gGlu-gGlu-gGlu-gGlu-gGlu-eLys(1,2)] | – | – | – | –
11 | 0.14 nM | 0.16 nM | 1.23 nM | – | H-Y[Aib]EGTFTSDYSI[Aib]LEEQAQ[Aib]AFVEWLIK([εLys-γGlu-γGlu-γGlu-γGlu-γGlu-C20 diacid])GGPSSGASLRHYYNWLTRQRY-NH2 [Compound 181, Y-Aib-E-G-T-F-T-S-D-Y-S-I-Aib-L-E-E-Q-A-Q-Aib-A-F-V-E-W-L-I-K(1,3)-GGPSSGASLRHYYNWLTRQRY-NH2.C20DA-gGlu-gGlu-gGlu-gGlu-gGlu-eLys(1,2)] | – | – | – | –
12 | 0.05 nM | 0.06 nM | 0.55 nM | – | H-Y[Aib]EGTFTSDYSI[Aib]LEKQAQ[Aib]AFVEWLIK([εLys-γGlu-γGlu-γGlu-γGlu-γGlu-γGlu-C20 diacid])GGPSSGAS[Aib]RHYYNWLTRQRY-NH2 [Compound 118, Y-Aib-E-G-T-F-T-S-D-Y-S-I-Aib-L-E-K-Q-A-Q-Aib-A-F-V-E-W-L-I-K(1,3)-G-G-P-S-S-G-A-S-Aib-R-H-Y-Y-N-W-L-T-R-Q-R-Y-NH2.C20DA-gGlu-gGlu-gGlu-gGlu-gGlu-gGlu-eLys(1,2)] | – | – | – | –
13 | 0.24 nM | 0.11 nM | 1.07 nM | – | H-Y[Aib]EGTFTSDYSI[Aib]LEKQAQ[Aib]AFVEYLIK([εLys-γGlu-γGlu-γGlu-γGlu-γGlu-γGlu-C20 diacid])GGPSSGASLRHYYNWLTRQRY-NH2 [Compound 135, Y-Aib-E-G-T-F-T-S-D-Y-S-I-Aib-L-E-K-Q-A-Q-Aib-A-F-V-E-Y-L-I-K(1,3)-GGPSSGASLRHYYNWLTRQRY-NH2.C20DA-gGlu-gGlu-gGlu-gGlu-gGlu-gGlu-eLys(1,2)] | – | – | – | –
14 | 0.24 nM | 0.42 nM | – | – | H-Y[Aib]EGTFTSDYSI[Aib]LEKQAQ[Aib]AFVEWLIK([εLys-γGlu-γGlu-γGlu-γGlu-γGlu-γGlu-C20 diacid])GGQSSGASLRHYYNWLTRQRY-NH2 [Compound 123, Y-Aib-E-G-T-F-T-S-D-Y-S-I-Aib-L-E-K-Q-A-Q-Aib-A-F-V-E-W-L-I-K(1,3)-GGQSSGASLRHYYNWLTRQRY-NH2.C20DA-gGlu-gGlu-gGlu-gGlu-gGlu-gGlu-eLys(1,2)] | – | – | – | –
15 | 0.2 nM | 0.25 nM | – | – | I: H-Y[Aib]EGTFTSDYSI[Aib]LEKQAQ[Aib]AFVQWLIKGGPEEGASLRHYYNWLTRQRY-NH2 / II: {C18 diacid}-EEEEEE[εLys] (amide I:28-II:C) [Compound 196, Y-Aib-E-G-T-F-T-S-D-Y-S-I-Aib-L-E-K-Q-A-Q-Aib-A-F-V-Q-W-L-I-K(1,3)-GGPEEGASLRHYYNWLTRQRY-NH2.C18DA-E-E-E-E-E-E-eLys(1,2)] | – | – | – | –
